According to patent US20250049828A1, “PHARMACEUTICAL COMPOSITION FOR TREATING TUMORS AND USE” (INXMED (NANJING) CO., LTD., priority 2021, published 2025):
pIC50: −log10 of the molar value.

Tests used:
[1] = test system: ovarian cancer cells SK-OV-3; assay: CCK8 cell viability / cell killing curve; format: cell-based; settings: Homo sapiens, SK-OV-3, drug alone, 72 hours
Description: A 96-well cell plate was plated with 5000 SK-OV-3 cells/well. After 24 hours, a drug with a maximum concentration of 20 μM was added and diluted with a 3-fold gradient dilution to set a total of 9 concentrations, with the lowest concentration being […]. After the drug and cells were co-incubated for 72 hours, 10 μL of CCK8 solution was added to each well, and the plate was incubated in a 37° C. and 5% carbon dioxide incubator for 2 hours. Then, a microplate reader was used for reading with a set absorbance wavelength of 450 nm. The values read were compared with the DMSO control group and plotted using Graphpad 8.0.
A 96-well cell plate was plated with 5000 SK-OV-3 cells/well. […] Adriamycin at these dosages was combined with 3 μM IN10018. After 72 hours of co-culture with the cells, cell viability was detected using CCK8 method. Graphpad 8.0 was used for plotting.
A 96-well cell plate was plated with 5000 SK-OV-3 cells/well. […] Adriamycin at these dosages was combined with 3 μM Defactinib. After 72 hours of co-culture with the cells, cell viability was detected using CCK8 method. Graphpad 8.0 was used for plotting.

CT26 cells = assay: Microscope observation and flow cytometry of CRT and Annexin-V positive cells; format: cell-based, mouse; settings: IN10018 5 μM, Adriamycin 1 μM, alone or combined, 48 hours
Description: Then the cells were collected for flow analysis.
The culture conditions were 37° C. and 5% CO2.

IFN-γ = assay: ELISA of IFN-γ in serum of CT26 tumor-bearing mice; format: in vivo, BALB/c mice; settings: IN10018 25 mg/kg PO QD × 8, Doxil 3 mg/kg i.v. QW × 2; blood 24 hours after the second administration of Doxil; n=5
Description: (§1) BALB/c mice (from Shanghai Lingchang Biotechnology Co., Ltd.) were used to construct the CT26 tumor cell model. When the tumor volume reached about 40 to 60 mm^3, the mice were randomly divided into groups according to the tumor volume and administered.
(§2) 24 hours after the second administration of Doxil, blood was collected from the orbit of four groups of animals. The blood was placed in a collection tube without anticoagulant and left standing to naturally coagulate at room temperature for 30 to 60 minutes. When the blood coagulated, the blood was centrifuged at 1000 rpm, 4° C. for 10 minutes. The upper serum was transferred to a new collection tube and stored in a −80° C. freezer.

Granzyme B = assay: ELISA of Granzyme B in serum of CT26 tumor-bearing mice; format: in vivo, BALB/c mice; settings: IN10018 25 mg/kg PO QD × 8, Doxil 3 mg/kg i.v. QW × 2; blood 24 hours after the second administration of Doxil; n=5
Description: as §1, §2

[2] = test system: FAK and phosphorylated FAKY397; assay: FAK knockdown efficiency by western blot; format: cell-based; settings: 50 nM FAKsiRNA, SK-OV-3 cells, western blot 72 hours after transfection
Description: SK-OV-3 cells were used as the research object, and Lipofectamine 3000 was used to transfect the cells with 50 nM FAKsiRNA. After the assay, proteins were collected to detect the expression of FAK and phosphorylated FAKY397.
Lipofectamine 3000 was used as a transfection reagent. Downstream combination and ICD biomarker assays can be performed 24 hours after the transfection. 72 hours after the transfection, SK-OV-3 cell proteins were collected, and western blot was performed to detect the amount of phosphorylated FAKY397, FAK and alpha tubulin.

Compound	pIC50 [1]	cell-killing effect observed under a microscope (CT26 cells)	IFN-γ protein concentration in serum (IFN-γ) [pg/mL]	Granzyme B protein concentration in serum (Granzyme B) [pg/mL]	knockdown effect on phosphorylated FAKY397 and total FAK proteins [2]
COc1cccc2c1C(=O)c1c(O)c3c(c(O)c1C2=O)C[C@@](O)(C(=O)CO)C[C@@H]3O[C@H]1C[C@H](N)[C@H](O)[C@H](C)O1 [Adriamycin, doxorubicin, reference compound]	6.52	had cell-killing effect	–	–	–
COc1cc(C(=O)NC2CCN(C)CC2)c(F)cc1Nc1ncc(C(F)(F)F)c(Oc2cccc3c2C(=O)N(C)C3)n1 [IN10018]	5.00	in good condition	367.24 ± 7.34	50.48 ± 53.08	–
FAKsiRNA: small interfering RNA for FAK knockdown, GenePharma; GGGCAUCAUUCAGAAGAUATT / UAUCUUCUGAAUGAUGCCCTT (chemistry not given here)	–	–	–	–	significant knockdown effect
